Results: PMC5339874, “Fluorene-9-bisphenol is anti-oestrogenic and may cause adverse pregnancy outcomes in mice” (Nature Communications, 2017)

What was measured:
CD-1 mice [1] = test: Global gene expression microarray of livers, ovaries and uteri; assay type: in vivo
Method: (§1) The uteri, ovaries and livers were collected for total RNA isolation. Total RNA was isolated using Trizol reagent (Invitrogen) and further purified by NucleoSpin RNA Clean-up (Macherey-Nagel, Germany). Fluorescence labelling of the RNA samples was performed with a Jingxin cRNA linear amplification and labelling kit (CapitalBio) according to the manufacturer's instructions. The total RNA from each pool of tissue samples (a mixture from three animals) was used for microarray analysis. Cy3 dCTP was used to label the samples. The labelled products were added to SurePrint G3 mouse gene expression 8 × 60 K microarrays (Agilent) and incubated overnight at 42 °C. Following hybridization, the gene arrays were washed and scanned using an Agilent G2565CA Microarray Scanner. Glyceraldehyde 3-phosphate dehydrogenase (GAPDH) was used as an endogenous control to monitor the quality of the target preparation. The data were processed with feature extraction software (GeneSpring GX v.11; Agilent). The raw signals were log-transformed and normalized with the percentile shift normalization method. All arrays met the minimum Agilent QA/QC standards. To verify the data from the gene array, 14 genes were chosen as candidates for Q-RT-PCR. Primers are listed in Supplementary Table 4. GAPDH was used as an endogenous control. Amplification was performed using SYBR Green PCR master mix (Applied Biosystems) according to the manufacturer's instructions. The relative expression was quantified using the 2^(−ΔΔCt) method. The Gene Ontology (GO) and KEGG pathway enrichment analyses were performed with DAVID (refs [40], [41]).

CD-1 mice [2] = test: Q-RT-PCR validation of the microarray; assay type: in vivo; settings: 50 mg/kg bw/d BHPF, 3 days
Method: as §1

[3] = Analysis of BHPF in human serum (GC–MS); assay type: in vivo
From the text: In China, college students usually undergo a physical examination before graduation. The volunteers in this study were senior students who were undergoing a physical examination in Beijing. Fifty male and 50 female healthy volunteers (mean age, 23.5±1.2 years) who habitually used plastic water bottles were randomly recruited to participate in this study in June 2015, after appropriate ethical approval was received from the Human Ethics Committee of the Peking University Peoples' Hospital. Each participant provided informed consent and volunteered to give one 10-ml random sample of blood. Fasting blood was collected at Peking University Hospital Medical Center with vacutainer blood collection device (Chengwu Yongkang Medical Products Ltd., China) between 8 and 9 h. […] The blood was collected directly into plain 10-ml glass vacutainer tubes and spun down 30 min later for serum preparation. The serum samples were stored in glass tubes at −80 °C until analysis. The samples were fortified with 5 ng of surrogate standard BHPF-d7, and the pH was adjusted to 6.5 with ammonium acetate. β-Glucuronidase/arylsulfatase (20 μl; Sigma-Aldrich, St Louis, MO) was added to the samples, and they were incubated at 37 °C for 20 h to allow deglucuronidation. […]

[4] = tested on: MCF-7 human breast cancer cells; design: method as in earlier work; settings: granted patent CN102727470; cited from earlier work
[5] = 50 mg/kg bw/d BHPF, 3 days, endogenous control
[6] = liver, 50 mg kg^−1 bw d^−1, 3 days
[7] = ovaries, 50 mg kg^−1 bw d^−1, 3 days
[8] = uteri, 50 mg kg^−1 bw d^−1, 3 days

Compound: Oc1ccc(C2(c3ccc(O)cc3)c3ccccc3-c3ccccc32)cc1 [BHPF, 9,9-bis(4-hydroxyphenyl)-fluorene]
- genes involved in biotransformation and oxidation-reduction processes (CD-1 mice [1]; 50 mg kg^−1 bw d^−1, 3 days): up-regulated in the uterus but not in the liver
- Actb gene expression change, liver, Microarray (CD-1 mice [1]; 50 mg/kg bw/d BHPF, 3 days): 1.09
- Actb gene expression change, ovary, Microarray (CD-1 mice [1]; 50 mg/kg bw/d BHPF, 3 days): 1.34
- Actb gene expression change, uterus, Microarray (CD-1 mice [1]; 50 mg/kg bw/d BHPF, 3 days): 1.07
- Cfd gene expression change, liver, Microarray (CD-1 mice [1]; 50 mg/kg bw/d BHPF, 3 days): -3.11
- Cfd gene expression change, ovary, Microarray (CD-1 mice [1]; 50 mg/kg bw/d BHPF, 3 days): 4.13
- Cfd gene expression change, uterus, Microarray (CD-1 mice [1]; 50 mg/kg bw/d BHPF, 3 days): -6.54
- Orm1 gene expression change, liver, Microarray (CD-1 mice [1]; 50 mg/kg bw/d BHPF, 3 days): -1.65
- Orm1 gene expression change, ovary, Microarray (CD-1 mice [1]; 50 mg/kg bw/d BHPF, 3 days): 1.18
- Orm1 gene expression change, uterus, Microarray (CD-1 mice [1]; 50 mg/kg bw/d BHPF, 3 days): 23.12
- Spp1 gene expression change, liver, Microarray (CD-1 mice [1]; 50 mg/kg bw/d BHPF, 3 days): -1.30
- Spp1 gene expression change, ovary, Microarray (CD-1 mice [1]; 50 mg/kg bw/d BHPF, 3 days): -1.67
- Spp1 gene expression change, uterus, Microarray (CD-1 mice [1]; 50 mg/kg bw/d BHPF, 3 days): 2.57
- Sprr1a gene expression change, liver, Microarray (CD-1 mice [1]; 50 mg/kg bw/d BHPF, 3 days): 2.17
- Sprr1a gene expression change, ovary, Microarray (CD-1 mice [1]; 50 mg/kg bw/d BHPF, 3 days): 1.17
- Sprr1a gene expression change, uterus, Microarray (CD-1 mice [1]; 50 mg/kg bw/d BHPF, 3 days): -3.44
- Sprr2a2 gene expression change, liver, Microarray (CD-1 mice [1]; 50 mg/kg bw/d BHPF, 3 days): 2.10
- Sprr2a2 gene expression change, ovary, Microarray (CD-1 mice [1]; 50 mg/kg bw/d BHPF, 3 days): -12.01
- Sprr2a2 gene expression change, uterus, Microarray (CD-1 mice [1]; 50 mg/kg bw/d BHPF, 3 days): -5.24
- Sprr2b gene expression change, liver, Microarray (CD-1 mice [1]; 50 mg/kg bw/d BHPF, 3 days): 2.75
- Sprr2b gene expression change, ovary, Microarray (CD-1 mice [1]; 50 mg/kg bw/d BHPF, 3 days): -2.07
- Sprr2b gene expression change, uterus, Microarray (CD-1 mice [1]; 50 mg/kg bw/d BHPF, 3 days): -13.20
- Sprr2f gene expression change, liver, Microarray (CD-1 mice [1]; 50 mg/kg bw/d BHPF, 3 days): 3.69
- Sprr2f gene expression change, ovary, Microarray (CD-1 mice [1]; 50 mg/kg bw/d BHPF, 3 days): -5.81
- Sprr2f gene expression change, uterus, Microarray (CD-1 mice [1]; 50 mg/kg bw/d BHPF, 3 days): -2.52
- Sprr2g gene expression change, liver, Microarray (CD-1 mice [1]; 50 mg/kg bw/d BHPF, 3 days): 2.09
- Sprr2g gene expression change, ovary, Microarray (CD-1 mice [1]; 50 mg/kg bw/d BHPF, 3 days): -5.71
- Sprr2g gene expression change, uterus, Microarray (CD-1 mice [1]; 50 mg/kg bw/d BHPF, 3 days): -2.13
- chil3 gene expression change, liver, Microarray (CD-1 mice [1]; 50 mg/kg bw/d BHPF, 3 days): -8.53
- chil3 gene expression change, ovary, Microarray (CD-1 mice [1]; 50 mg/kg bw/d BHPF, 3 days): -9.16
- chil3 gene expression change, uterus, Microarray (CD-1 mice [1]; 50 mg/kg bw/d BHPF, 3 days): -6.60
- cyp2e1 gene expression change, liver, Microarray (CD-1 mice [1]; 50 mg/kg bw/d BHPF, 3 days): -1.01
- cyp2e1 gene expression change, ovary, Microarray (CD-1 mice [1]; 50 mg/kg bw/d BHPF, 3 days): 1.25
- cyp2e1 gene expression change, uterus, Microarray (CD-1 mice [1]; 50 mg/kg bw/d BHPF, 3 days): 5.02
- ll1f6 gene expression change, liver, Microarray (CD-1 mice [1]; 50 mg/kg bw/d BHPF, 3 days): 1.95
- ll1f6 gene expression change, ovary, Microarray (CD-1 mice [1]; 50 mg/kg bw/d BHPF, 3 days): -1.11
- ll1f6 gene expression change, uterus, Microarray (CD-1 mice [1]; 50 mg/kg bw/d BHPF, 3 days): -10.96
- serp1d gene expression change, liver, Microarray (CD-1 mice [1]; 50 mg/kg bw/d BHPF, 3 days): 1.02
- serp1d gene expression change, ovary, Microarray (CD-1 mice [1]; 50 mg/kg bw/d BHPF, 3 days): 1.13
- serp1d gene expression change, uterus, Microarray (CD-1 mice [1]; 50 mg/kg bw/d BHPF, 3 days): 17.78
- GAPDH gene expression change, liver, Microarray (CD-1 mice [1]; [5]): 1.02
- GAPDH gene expression change, ovary, Microarray (CD-1 mice [1]; [5]): 1.03
- GAPDH gene expression change, uterus, Microarray (CD-1 mice [1]; [5]): -1.02
- share of modified genes down-regulated (CD-1 mice [1]; [6]): 22.3%
- share of modified genes up-regulated (CD-1 mice [1]; [6]): 77.7%
- expression of sprr2a, sprr2b, sprr2f and sprr2g (response to E2 stimuli) (CD-1 mice [1]; [7]): down-regulated
- share of modified genes down-regulated (CD-1 mice [1]; [7]): 65.5%
- share of modified genes up-regulated (CD-1 mice [1]; [7]): 34.5%
- expression pattern of oestrogen-responsive genes compared with that induced by E2 (CD-1 mice [1]; [8]): opposite expression pattern
- share of modified genes down-regulated (CD-1 mice [1]; [8]): 43.4%
- share of modified genes up-regulated (CD-1 mice [1]; [8]): 56.6%
- Actb gene expression change, liver, Q-RT-PCR (CD-1 mice [2]): 1.25
- Actb gene expression change, ovary, Q-RT-PCR (CD-1 mice [2]): 1.13
- Actb gene expression change, uterus, Q-RT-PCR (CD-1 mice [2]): 1.13
- Cfd gene expression change, liver, Q-RT-PCR (CD-1 mice [2]): -2.43
- Cfd gene expression change, ovary, Q-RT-PCR (CD-1 mice [2]): 2.28
- Cfd gene expression change, uterus, Q-RT-PCR (CD-1 mice [2]): -2.85
- Orm1 gene expression change, liver, Q-RT-PCR (CD-1 mice [2]): -1.41
- Orm1 gene expression change, ovary, Q-RT-PCR (CD-1 mice [2]): 2.19
- Orm1 gene expression change, uterus, Q-RT-PCR (CD-1 mice [2]): 5.17
- Spp1 gene expression change, liver, Q-RT-PCR (CD-1 mice [2]): -1.51
- Spp1 gene expression change, ovary, Q-RT-PCR (CD-1 mice [2]): -1.68
- Spp1 gene expression change, uterus, Q-RT-PCR (CD-1 mice [2]): 3.43
- Sprr1a gene expression change, liver, Q-RT-PCR (CD-1 mice [2]): 4.11
- Sprr1a gene expression change, ovary, Q-RT-PCR (CD-1 mice [2]): 1.16
- Sprr1a gene expression change, uterus, Q-RT-PCR (CD-1 mice [2]): -2.01
- Sprr2a2 gene expression change, liver, Q-RT-PCR (CD-1 mice [2]): 3.43
- Sprr2a2 gene expression change, ovary, Q-RT-PCR (CD-1 mice [2]): -8.94
- Sprr2a2 gene expression change, uterus, Q-RT-PCR (CD-1 mice [2]): -5.70
- Sprr2b gene expression change, liver, Q-RT-PCR (CD-1 mice [2]): 4.76
- Sprr2b gene expression change, ovary, Q-RT-PCR (CD-1 mice [2]): -9.65
- Sprr2b gene expression change, uterus, Q-RT-PCR (CD-1 mice [2]): -9.58
- Sprr2f gene expression change, liver, Q-RT-PCR (CD-1 mice [2]): 4.41
- Sprr2f gene expression change, ovary, Q-RT-PCR (CD-1 mice [2]): -5.28
- Sprr2f gene expression change, uterus, Q-RT-PCR (CD-1 mice [2]): -5.78
- Sprr2g gene expression change, liver, Q-RT-PCR (CD-1 mice [2]): 3.68
- Sprr2g gene expression change, ovary, Q-RT-PCR (CD-1 mice [2]): -5.70
- Sprr2g gene expression change, uterus, Q-RT-PCR (CD-1 mice [2]): -1.83
- chil3 gene expression change, liver, Q-RT-PCR (CD-1 mice [2]): -2.81
- chil3 gene expression change, ovary, Q-RT-PCR (CD-1 mice [2]): -3.92
- chil3 gene expression change, uterus, Q-RT-PCR (CD-1 mice [2]): -3.07
- cyp2e1 gene expression change, liver, Q-RT-PCR (CD-1 mice [2]): 4.06
- cyp2e1 gene expression change, ovary, Q-RT-PCR (CD-1 mice [2]): 1.69
- cyp2e1 gene expression change, uterus, Q-RT-PCR (CD-1 mice [2]): 4.00
- ll1f6 gene expression change, liver, Q-RT-PCR (CD-1 mice [2]): 2.66
- ll1f6 gene expression change, ovary, Q-RT-PCR (CD-1 mice [2]): -4.29
- ll1f6 gene expression change, uterus, Q-RT-PCR (CD-1 mice [2]): -4.66
- serp1d gene expression change, liver, Q-RT-PCR (CD-1 mice [2]): 2.48
- serp1d gene expression change, ovary, Q-RT-PCR (CD-1 mice [2]): 1.59
- serp1d gene expression change, uterus, Q-RT-PCR (CD-1 mice [2]): 30.91
- GAPDH gene expression change, liver, Q-RT-PCR (CD-1 mice [2]; endogenous control): 1.00
- GAPDH gene expression change, ovary, Q-RT-PCR (CD-1 mice [2]; endogenous control): 1.00
- GAPDH gene expression change, uterus, Q-RT-PCR (CD-1 mice [2]; endogenous control): 1.00
- maximal serum BHPF level ([3]; human volunteers): 0.7 ng/mL
- mean serum BHPF level ([3]; volunteers with detectable BHPF): 0.34 ± 0.21 ng/mL
- proliferation of MCF-7 human breast cancer cells [4]: inhibited the proliferation
